Experimental data published in patent publication US6479435B1, “Diaryl ethers and processes for their preparation and herbicidal and desiccant compositions containing them” (ISK Americas Incorporated, priority 1997, dated 2002).

Tests used:
Format in all cases: in vivo
[1] = test system: Johnsongrass (Sorghum halepense, SORHA); test: Pre-emerge greenhouse herbicide test, phytotoxicity rating; conditions: 14 days after application, rating scale 0-100
Procedure, shortened: (§1)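 Seeds sown in sandy loam one day before track-sprayer application of acetone solutions at 125–1000 g ai/ha (187 l/ha), then surface-watered to incorporate and bottom-watered. Injury scored visually at 14 days on a 0–100 scale (0 no damage, 100 complete death).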

[2] = test system: barnyardgrass (Echinochloa crusgalli, ECHCG); test: as above; conditions: 14 days after application, rating scale 0-100
Procedure, shortened: as §1

[3] = test system: green foxtail (Setaria viridis, SETVI); test: as above; conditions: 14 days after application, rating scale 0-100
Procedure, shortened: as §1

[4] = test system: ivyleaf morningglory (Ipomoea hederacea, IPOHE); test: as above; conditions: 14 days after application, rating scale 0-100
Procedure, shortened: as §1

[5] = test system: lambsquarters (Chenopodium album, CHEAL); test: as above; conditions: 14 days after application, rating scale 0-100
Procedure, shortened: as §1

[6] = test system: large crabgrass (Digitaria sanguinalis, DIGSA); test: as above; conditions: 14 days after application, rating scale 0-100
Procedure, shortened: as §1

[7] = test system: redroot pigweed (Amaranthus retroflexus, AMARE); test: as above; conditions: 14 days after application, rating scale 0-100
Procedure, shortened: as §1

[8] = test system: sicklepod (Cassia obtusifolia, CASOB); test: as above; conditions: 14 days after application, rating scale 0-100
Procedure, shortened: as §1

[9] = test system: velvetleaf (Abutilon theophrasti, ABUTH); test: as above; conditions: 14 days after application, rating scale 0-100
Procedure, shortened: as §1

[10] = test system: field corn (Zea mays L., var. Dekalb 535, CORN); test: Pre-emerge greenhouse test, crop damage rating; conditions: 14 days after application, rating scale 0-100
Procedure, shortened: as §1

[11] = test system: upland rice (Oryza sp., var.Tebonnet, RICE); test: Pre-emerge greenhouse test, crop damage rating; conditions: 14 days after application, rating scale 0-100
Procedure, shortened: as §1

[12] = test system: soybean (Glycine max L., var. Pella 86, SOY); test: Pre-emerge greenhouse test, crop damage rating; design: key to SOY crop damage rating: 0 = no damage, 100 = complete death of all plants; conditions: 14 days after application, rating scale 0-100
Procedure, shortened: as §1

[13] = test system: common ragweed (Ambrosia artemisiifolia L., AMBEL); test: Post-emerge greenhouse herbicide test, phytotoxicity rating; conditions: 14 days after application, scale 0-100
Description: A standard greenhouse herbicide activity screening system was used to evaluate the herbicidal efficacy and crop safety of these test compounds. Six broadleaf weed species including redroot pigweed (Amaranthus retroflexus, AMARE), velvetleaf (Abutilon theophrasti, ABUTH), sicklepod (Cassia obtusifolia, CASOB), ivyleaf morningglory (Ipomoea hederacea, IPOHE), lambsquarters (Chenopodium album, CHEAL) and common ragweed (Ambrosia artemisiifolia L., AMBEL) were used as test species. Four grass weed species including green foxtail (Setaria viridis, SETVI), barnyardgrass (Echinochloa crusgalli, ECHCG), Johnsongrass (Sorghum halepense, SORHA), and large crabgrass (Digitaria sanguinalis, DIGSA) were also used. In addition, three crop species, field corn (Zea mays L., var. Dekalb 535, CORN), soybean (Glycine max L., var. Pella 86, SOY), and upland rice (Oryza sp., var.Tebonnet, RICE) were included.
All test compounds were dissolved in acetone and applied to the test units in a volume of 187 l/ha. […] Plants were arranged on a shelf so that the top of the canopy (post-emerge) or top of the soil surface (pre-emerge) was 40-45 cm below the nozzle. Pressurized air was used to force the test solution through the nozzle as it was mechanically advanced (via electrically driven chain drive) over the top of all test plants/pots. This application simulates a typical commercial field herbicide application.
In the post-emerge test, a commercial non-ionic surfactant was also included (0.25% v/v) to enhance wetting of the leaf surfaces Qf target plants at rates ranging from 63 g ai/ha to 1000 g ai/ha. For post-emerge tests, seeds were planted 8-21 days prior to the test to allow emergence and good foliage development prior to application of the test substances. At the time of the post-emerge application, plants of all species were usually at the 2-3 leaf stage of development. Post-emerge test units were always bottom-watered.
At 14 days after application of the test materials, phytotoxicity ratings were recorded. A rating scale of 0-100 was used as previously described in Research Methods in Weed Science, 2nd edition, B. Truelove, Ed., Southern Weed Science Society, Auburn University, Auburn, Ala., 1977. Briefly, “0” corresponds to no damage and “100” corresponds to complete death of all plants in the test unit. This scale was used both to determine efficacy against weed species and damage to crop species. Herbicide activity data for various compounds of this invention, which are shown by compound number in Tables 1-9, are shown in Tables 13 and 14.

[14] = test system: Johnsongrass (Sorghum halepense, SORHA); test: as above; conditions: 14 days after application, scale 0-100
Procedure, shortened: (§2)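 Plants at the 2-3 leaf stage, sown 8-21 days earlier, were track-sprayed post-emergence with compound in acetone plus 0.25% v/v non-ionic surfactant at 63-1000 g ai/ha (187 l/ha). Damage was rated at 14 days on a 0-100 scale (0 none, 100 all plants dead), for both crop injury and weed control.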

[15] = test system: barnyardgrass (Echinochloa crusgalli, ECHCG); test: as above; conditions: 14 days after application, scale 0-100
Procedure, shortened: as §2

[16] = test system: green foxtail (Setaria viridis, SETVI); test: as above; conditions: 14 days after application, scale 0-100
Procedure, shortened: as §2

[17] = test system: ivyleaf morningglory (Ipomoea hederacea, IPOHE); test: as above; conditions: 14 days after application, scale 0-100
Procedure, shortened: as §2

[18] = test system: lambsquarters (Chenopodium album, CHEAL); test: as above; conditions: 14 days after application, scale 0-100
Procedure, shortened: as §2

[19] = test system: large crabgrass (Digitaria sanguinalis, DIGSA); test: as above; conditions: 14 days after application, scale 0-100
Procedure, shortened: as §2

[20] = test system: redroot pigweed (Amaranthus retroflexus, AMARE); test: as above; conditions: 14 days after application, scale 0-100
Procedure, shortened: as §2

[21] = test system: sicklepod (Cassia obtusifolia, CASOB); test: as above; conditions: 14 days after application, scale 0-100
Procedure, shortened: as §2

[22] = test system: velvetleaf (Abutilon theophrasti, ABUTH); test: as above; conditions: 14 days after application, scale 0-100
Procedure, shortened: as §2

[23] = test system: field corn (Zea mays L., var. Dekalb 535, CORN); test: Post-emerge greenhouse test, crop damage rating; conditions: 14 days after application, scale 0-100
Procedure, shortened: as §2

[24] = test system: upland rice (Oryza sp., var.Tebonnet, RICE); test: Post-emerge greenhouse test, crop damage rating; conditions: 14 days after application, scale 0-100
Procedure, shortened: as §2

[25] = test system: soybean (Glycine max L., var. Pella 86, SOY); test: Post-emerge greenhouse test, crop damage rating; design: key to crop damage rating SOY: 0-100 scale: 0 = no damage, 100 = complete death of all plants; conditions: 14 days after application, scale 0-100
Procedure, shortened: as §2

CCOC(=O)C(C)Oc1ccc(Oc2cc(-n3c(=O)n4n(c3=O)CCCC4)c(F)cc2Cl)c([N+](=O)[O-])c1 (centres unmarked) [Compound 8-41]
SORHA phytotoxicity rating ([1]; Rate 125 g al/ha): 0
SORHA phytotoxicity rating ([1]; Rate 250 g al/ha): 0
ECHCG phytotoxicity rating ([2]; Rate 125 g al/ha): 0
ECHCG phytotoxicity rating ([2]; Rate 250 g al/ha): 0
SETVI phytotoxicity rating ([3]; Rate 125 g al/ha): 10
SETVI phytotoxicity rating ([3]; Rate 250 g al/ha): 50
IPOHE phytotoxicity rating ([4]; Rate 125 g al/ha): 0
IPOHE phytotoxicity rating ([4]; Rate 250 g al/ha): 0
CHEAL phytotoxicity rating ([5]; Rate 125 g al/ha): 70
CHEAL phytotoxicity rating ([5]; Rate 250 g al/ha): 90
DIGSA phytotoxicity rating ([6]; Rate 125 g al/ha): 0
DIGSA phytotoxicity rating ([6]; Rate 250 g al/ha): 0
AMARE phytotoxicity rating ([7]; Rate 125 g al/ha): 80
AMARE phytotoxicity rating ([7]; Rate 250 g al/ha): 100
CASOB phytotoxicity rating ([8]; Rate 125 g al/ha): 0
CASOB phytotoxicity rating ([8]; Rate 250 g al/ha): 0
ABUTH phytotoxicity rating ([9]; Rate 125 g al/ha): 0
ABUTH phytotoxicity rating ([9]; Rate 250 g al/ha): 70
CORN crop damage rating ([10]; Rate 125 g al/ha): 0
CORN crop damage rating ([10]; Rate 250 g al/ha): 0
RICE crop damage rating ([11]; Rate 125 g al/ha): 0
RICE crop damage rating ([11]; Rate 250 g al/ha): 0
SOY crop damage rating ([12]; Rate 125 g al/ha): 0
SOY crop damage rating ([12]; Rate 250 g al/ha): 0
phytotoxicity rating AMBEL ([13]; rate 63 g ai/ha): 00
phytotoxicity rating AMBEL ([13]; rate 250 g ai/ha): 30
phytotoxicity rating SORHA ([14]; rate 63 g ai/ha): 0
phytotoxicity rating SORHA ([14]; rate 250 g ai/ha): 0
phytotoxicity rating ECHCG ([15]; rate 63 g ai/ha): 0
phytotoxicity rating ECHCG ([15]; rate 250 g ai/ha): 0
phytotoxicity rating SETVI ([16]; rate 63 g ai/ha): 0
phytotoxicity rating SETVI ([16]; rate 250 g ai/ha): 0
phytotoxicity rating IPOHE ([17]; rate 63 g ai/ha): 30
phytotoxicity rating IPOHE ([17]; rate 250 g ai/ha): 100
phytotoxicity rating CHEAL ([18]; rate 63 g ai/ha): 40
phytotoxicity rating CHEAL ([18]; rate 250 g ai/ha): 50
phytotoxicity rating DIGSA ([19]; rate 63 g ai/ha): 0
phytotoxicity rating DIGSA ([19]; rate 250 g ai/ha): 0
phytotoxicity rating AMARE ([20]; rate 63 g ai/ha): 40
phytotoxicity rating AMARE ([20]; rate 250 g ai/ha): 40
phytotoxicity rating CASOB ([21]; rate 63 g ai/ha): 30
phytotoxicity rating CASOB ([21]; rate 250 g ai/ha): 100
phytotoxicity rating ABUTH ([22]; rate 63 g ai/ha): 95
phytotoxicity rating ABUTH ([22]; rate 250 g ai/ha): 100
crop damage rating CORN ([23]; rate 63 g ai/ha): 0
crop damage rating CORN ([23]; rate 250 g ai/ha): 0
crop damage rating RICE ([24]; rate 63 g ai/ha): 0
crop damage rating RICE ([24]; rate 250 g ai/ha): 0
crop damage rating SOY ([25]; rate 63 g ai/ha): 30
crop damage rating SOY ([25]; rate 250 g ai/ha): 60
